Laboratory results from patent US20240238212A1, “LIPID COMPOUNDS AND LIPID NANOPARTICLE COMPOSITIONS” (SUZHOU ABOGEN BIOSCIENCES CO., LTD., priority 2022, published 2024).

Assays:
[1] = system: human erythropoietin (hEPO) mRNA expression; test: Animal Study 1: hEPO mRNA LNPs i.v. in mice, serum EPO by ELISA; format: in vivo; conditions: female ICR mice, 0.5 mg/kg tail vein injection, blood e.g. 6 hours post administration; relative to MC3 LNP
Procedure: Lipid nanoparticles comprising compounds in the following table encapsulating human erythropoietin (hEPO) mRNA were systemically administered to 6-8 week old female ICR mice (Xipuer-Bikai, Shanghai) at 0.5 mg/kg dose by tail vein injection and mice blood were sampled at specific time points (e.g., 6 hours) post administration. In addition to the aforementioned tested groups, lipid nanoparticles comprising dilinoleylmethyl-4-dimethylaminobutyrate (DLin-MC3-DMA, usually abbreviated to MC3) encapsulating hEPO mRNA were similarly administered at the same dose to age and gender comparative groups of mice as a positive control.
Mice were euthanized by CO2 overdoses after the last sampling time point. Serum were separated from total blood by centrifugation at 5000 g for 10 minutes at 4 T, snap-frozen and stored at −80 T for analysis. ELISA assay were carried out using a commercial kit (DEP00, R&D systems) according to manufacturer's instructions.
Characteristics of tested lipid nanoparticles, including EPO expression levels over MC3 measured from the tested group are listed in the table below.

[2] = Lipid nanoparticle size and polydispersity by dynamic light scattering; format: physicochemical; conditions: LNP comprising the compound, hEPO mRNA; for Size (nm): cationic lipid/DSPC/cholesterol/PEG-lipid 50:10:38.5:1.5
Procedure: (§1) Briefly, a cationic lipid provided herein, DSPC, cholesterol, and PEG-lipid were solubilized in ethanol at a molar ratio of 50:10:38.5:1.5, and mRNA were diluted in 10 to 50 mM citrate buffer, pH=4. The LNPs were prepared at a total lipid to mRNA weight ratio of approximately 10:1 to 30:1 by mixing the ethanolic lipid solution with the aqueous mRNA solution at a volume ratio of 1:3 using a microfluidic apparatus, total flow rate ranging from 9-30 mL/min. Ethanol were thereby removed and replaced by DPBS using dialysis. Finally, the lipid nanoparticles were filtered through a 0.2 μm sterile filter.
(§2) Lipid nanoparticle size were determined by dynamic light scattering using a Malvern Zetasizer Nano ZS (Malvern UK) using a 173° backscatter detection mode. The encapsulation efficiency of lipid nanoparticles were determined using a Quant-it Ribogreen RNA quantification assay kit (Thermo Fisher Scientific, UK) according to the manufacturer's instructions.

[3] = Encapsulation efficiency of lipid nanoparticles (Quant-it Ribogreen RNA assay); format: physicochemical; conditions: LNP comprising the compound, hEPO mRNA
Procedure: as §1, §2

[4] = Apparent pKa of LNP formulations (TNS fluorescence assay); format: physicochemical; conditions: LNP formulation, TNS assay (Table 2)
Procedure: As reported in literature, the apparent pKa of LNP formulations correlates with the delivery efficiency of LNPs for nucleic acids in vivo. The apparent pKa of each formulation was determined using an assay based on fluorescence of 2-(p-toluidino)-6-napthalene sulfonic acid (TNS). LNP formulations comprising of cationic lipid/DSPC/cholesterol/DMG-PEG (50/10/38.5/1.5 mol %) in PBS were prepared as described above. TNS was prepared as a 300 μM stock solution in distilled water. LNP formulations were diluted to 0.1 mg/mL total lipid in 3 mL of buffered solutions containing 50 mM sodium citrate, 50 mM sodium phosphate, 50 mM sodium borate, and 30 mM sodium chloride where the pH ranged from 3 to 9. An aliquot of the TNS solution was added to give a final concentration of […] and following vortex mixing fluorescence intensity was measured at room temperature in a Molecular Devices Spectramax iD3 spectrometer using excitation and mission wavelengths of 325 nm and 435 nm. A sigmoidal best fit analysis was applied to the fluorescence data and the pKa value was measured as the pH giving rise to half-maximal fluorescent intensity.

## CCCCCCCC(=O)OCC(CCCCN(CCO)CCCCC(COC(=O)CCCCCCC)COC(=O)CCCCCCC)COC(=O)CCCCCCC [Compound 1]
[1]
  EPO expression over MC3: A (≥2)

## CCCCCCCC(=O)OCC(CCCCN(CCCCC(COC(=O)CCCCCCC)COC(=O)CCCCCCC)CCN(CCO)C1CCC1)COC(=O)CCCCCCC [Compound 2]
[1]
  EPO expression over MC3: A (≥2)

## CCCCCCCC(=O)OCC(CCCCN(CCCCCO)CCCCC(COC(=O)CCCCCCC)COC(=O)CCCCCCC)COC(=O)CCCCCCC [Compound 3]
[2]
  Polydispersity: 0.101
  Size (nm): 72.97 nm
[3]
  Encapsulation efficiency: 88.90%
[4]
  Apparent pKa: 6.726
[1]
  EPO expression over MC3: A (≥2)

## CCCCCCCCCCCCOC(=O)CCCCCN(CCO)CCCCCC(=O)OCC(COC(=O)CCCCCCC)COC(=O)CCCCCCC [Compound 4]
[4]
  Apparent pKa: 6.943
[1]
  EPO expression over MC3: C (≥0.1 and <1)

## CCCCCCCCC(CCCCCC)C(=O)OCC(CCCCN(CCO)CCCCC(COC(=O)CCCCCCC)COC(=O)CCCCCCC)COC(=O)C(CCCCCC)CCCCCCCC (stereo not shown) [Compound 12]
[2]
  Polydispersity: 0.053
  Size (nm): 56.95 nm
[3]
  Encapsulation efficiency: 87.61%
[1]
  EPO expression over MC3: D (<0.1)

## CCCCCCCC(=O)OCC(COC(=O)CCCCCCC)OCCCN(CCCOC(COC(=O)CCCCCCC)COC(=O)CCCCCCC)CCN(CCO)C1CCCCC1 [Compound 14]
[2]
  Polydispersity: 0.049
  Size (nm): 91.43 nm
[3]
  Encapsulation efficiency: 82.84%
[4]
  Apparent pKa: 6.457
[1]
  EPO expression over MC3: A (≥2)

## CCCCCCCCOC(CCCCCN(CCO)CCCCCC(OCCCCCCCC)OCCCCCCCC)OCCCCCCCC [Compound 15]
[2]
  Polydispersity: 0.096
  Size (nm): 77.33 nm
[3]
  Encapsulation efficiency: 94.67%
[4]
  Apparent pKa: 6.219
[1]
  EPO expression over MC3: C (≥0.1 and <1)

## CCCCCCCC(=O)OCC(CCCCN(CCCCC(COC(=O)CCCCCCC)COC(=O)CCCCCCC)C1CCC(O)CC1)COC(=O)CCCCCCC (stereo not shown) [Compound 16]
[2]
  Polydispersity: 0.021
  Size (nm): 68.14 nm
[3]
  Encapsulation efficiency: 90.78%
[4]
  Apparent pKa: 6.509
[1]
  EPO expression over MC3: A (≥2)

## CCCCCCCCOC(CCCCCN(CCCCCC(OCCCCCCCC)OCCCCCCCC)CCOCCO)OCCCCCCCC [Compound 17]
[2]
  Polydispersity: 0.056
  Size (nm): 79.67 nm
[3]
  Encapsulation efficiency: 96.64%
[4]
  Apparent pKa: 6.189
[1]
  EPO expression over MC3: C (≥0.1 and <1)

## CCCCCCCCOC(CCCCCN(CCCCO)CCCCCC(OCCCCCCCC)OCCCCCCCC)OCCCCCCCC [Compound 18]
[2]
  Polydispersity: 0.057
  Size (nm): 62.64 nm
[3]
  Encapsulation efficiency: 93.58%
[4]
  Apparent pKa: 6.251
[1]
  EPO expression over MC3: B (≥1 and <2)

## CCCCCCCCOC(CCCCCN(CCCCCO)CCCCCC(OCCCCCCCC)OCCCCCCCC)OCCCCCCCC [Compound 19]
[2]
  Polydispersity: 0.07
  Size (nm): 64.48 nm
[3]
  Encapsulation efficiency: 95.52%
[4]
  Apparent pKa: 6.216
[1]
  EPO expression over MC3: B (≥1 and <2)

## CCCCCCCCCCCCCCCC(=O)OCCCCCCN(CCO)CCCCC(COC(=O)CCCCCCC)COC(=O)CCCCCCC [Compound 20]
[2]
  Polydispersity: 0.078
  Size (nm): 72.72 nm
[3]
  Encapsulation efficiency: 91.22%
[4]
  Apparent pKa: 6.889
[1]
  EPO expression over MC3: A (≥2)

## CCCCCCCCCCCCCCCCCC(=O)OCCCCCCN(CCO)CCCCC(COC(=O)CCCCCCC)COC(=O)CCCCCCC [Compound 21]
[2]
  Polydispersity: 0.017
  Size (nm): 73.11 nm
[3]
  Encapsulation efficiency: 93.42%
[4]
  Apparent pKa: 6.962
[1]
  EPO expression over MC3: B (≥1 and <2)

## CCCCC/C=C\C/C=C\CCCCCCCC(=O)OCCCCCCN(CCO)CCCCC(COC(=O)CCCCCCC)COC(=O)CCCCCCC [Compound 22]
[2]
  Polydispersity: 0.051
  Size (nm): 79.16 nm
[3]
  Encapsulation efficiency: 89.98%
[4]
  Apparent pKa: 6.748
[1]
  EPO expression over MC3: A (≥2)

## CCCCCCCC(=O)OCC(CCCCN(CCCCC(COC(=O)CCCCCCC)COC(=O)CCCCCCC)C1CC(O)C1)COC(=O)CCCCCCC (stereo not shown) [Compound 23]
[2]
  Polydispersity: 0.084
  Size (nm): 69.97 nm
[3]
  Encapsulation efficiency: 89.04%
[4]
  Apparent pKa: 6.601
[1]
  EPO expression over MC3: A (≥2)

## CCCCCCCC/C=C\CCCCCCCC(=O)OCCCCCCN(CCO)CCCCC(COC(=O)CCCCCCC)COC(=O)CCCCCCC [Compound 24]
[2]
  Polydispersity: 0.07
  Size (nm): 70.66 nm
[3]
  Encapsulation efficiency: 90.29%
[4]
  Apparent pKa: 6.745
[1]
  EPO expression over MC3: C (≥0.1 and <1)

## CCCCCCCC(=O)OCC(COC(=O)CCCCCCC)OCCCN(CCCCCO)CCCOC(COC(=O)CCCCCCC)COC(=O)CCCCCCC [Compound 25]
[2]
  Polydispersity: 0.085
  Size (nm): 98.05 nm
[3]
  Encapsulation efficiency: 82.87%
[4]
  Apparent pKa: 6.418
[1]
  EPO expression over MC3: B (≥1 and <2)

## CCCCCCCCCCC(=O)OCCCCCCN(CCCCC(COC(=O)CCCCCCC)COC(=O)CCCCCCC)CCCNc1c(N(C)C)c(=O)c1=O [Compound 40]
[2]
  Polydispersity: 0.1163
  Size (nm): 66.72 nm
[3]
  Encapsulation efficiency: 93.31%

## CCCCCCCCCCCCCCCCCC(=O)OCCCCCCN(CCCCC(COC(=O)CCCCCCC)COC(=O)CCCCCCC)CCCNc1c(N(C)C)c(=O)c1=O [Compound 41]
[2]
  Polydispersity: 0.08791
  Size (nm): 55.42 nm
[3]
  Encapsulation efficiency: 95.98%

## CCCCCCCC(=O)OCC(CCCCN(CCCCC(COC(=O)CCCCCCC)COC(=O)CCCCCCC)[C@@H](CO)C(C)C)COC(=O)CCCCCCC [Compound 44]
[2]
  Polydispersity: 0.126
  Size (nm): 74.63 nm
[3]
  Encapsulation efficiency: 86.17%

## CCCCCCCC(=O)OCC(CCCCN(CCCCC(COC(=O)CCCCCCC)COC(=O)CCCCCCC)CC1(CO)CCC1)COC(=O)CCCCCCC [Compound 45]
[2]
  Polydispersity: 0.14
  Size (nm): 61.88 nm
[3]
  Encapsulation efficiency: 86.40%

## CCCCCCCC(=O)OCC(CCCCN(CCCCC(COC(=O)CCCCCCC)COC(=O)CCCCCCC)[C@H](CO)C(C)C)COC(=O)CCCCCCC [Compound 46]
[2]
  Polydispersity: 0.135
  Size (nm): 68.21 nm
[3]
  Encapsulation efficiency: 73.99%

## CCCCCCCC(=O)OCC(CCCCN(CCCCC(COC(=O)CCCCCCC)COC(=O)CCCCCCC)CC1(CO)CCCC1)COC(=O)CCCCCCC [Compound 49]
[2]
  Polydispersity: 0.111
  Size (nm): 69.44 nm
[3]
  Encapsulation efficiency: 83.82%

## CCCCCCCC(=O)OCC(CCCCN(CCCCC(COC(=O)CCCCCCC)COC(=O)CCCCCCC)CCC1(O)CCCCC1)COC(=O)CCCCCCC [Compound 50]
[2]
  Polydispersity: 0.117
  Size (nm): 67.07 nm
[3]
  Encapsulation efficiency: 83.93%
